Values quoted from earlier work in paper PMC3103655 (Journal of natural products, 2011).

Columns and labels:
[1] = system: cancer cells
[2] = system: MOLT-4 leukemia cells; conditions: read-out: IC50, MOLT-4 leukemia cells
[3] = system: MCF7 breast cancer cells; conditions: read-out: IC50, MCF7 breast cancer cells
[4] = system: KB cells; conditions: 10 μg/mL
[5] = system: LoVo cells; conditions: 10 μg/mL

## dolastatin 10
[1]
  IC50 values against cancer cells: pico- to nanomolar

## hantupeptin A
[2]
  IC50: 32 nM
[3]
  IC50: 4000 nM

## symplostatin 1
[1]
  IC50 values against cancer cells: pico- to nanomolar

## trungapeptin A
[4]
  cytotoxicity, KB cells: did not display cytotoxicity
[5]
  cytotoxicity, LoVo cells: did not display cytotoxicity
